Laboratory results published in patent US12194153B2, “Amorphous dispersion of 4-methyl-3-quinolin-3-ylethynyl-benzoic acid n′-(2-chloro-6-methyl-benzoyl) hydrazide” (SUN PHARMA ADVANCED RESEARCH COMPANY LIMITED, priority 2017, dated 2025).

Experiment: Oral bioavailability study in dogs (plasma levels of compound of formula I)
Type: in vivo
Settings: dog; oral administration to dogs; plasma level of compound of formula I
Procedure: Suitable amount of amorphous dispersion of Example I and the crystalline form of compound of formula I suspended in a vehicle were administered orally to dogs.
Blood samples were withdrawn at various time intervals and the plasma levels of compound of formula I were recorded. The Cmax, AUC0 to t and AUC0-∞, in plasma are tabulated below.

AUC(0-inf): 1190 ng·h/mL
AUC(0-t): 1070 ng·h/mL
Cmax: 282 ng/mL
SMILES: Cc1ccc(C(=O)NNC(=O)c2c(C)cccc2Cl)cc1C#Cc1cnc2ccccc2c1 [Compound of formula I in a vehicle, 4-Methyl-3-quinolin-3-ylethynyl-benzoic acid N′-(2-chloro-6-methyl-benzoyl)hydrazide]
